Patent US8952024B2, “Herbicidal pyrimidone derivatives” (E I du Pont de Nemours and Company, priority 2009, dated 2015)

Tests used:
Type in all cases: in vivo
[1] = tested on: barnyardgrass (Echinochloa crus-galli); assay: Test A pre-/postemergence plant response; details: for Barnyardgrass plant response rating: visual injury, 0 to 100 scale (0 no effect, 100 complete control), approx. ten days
Summary of the method: (§1)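 Formulated test chemicals (non-phytotoxic solvent, surfactant) were sprayed onto soil right after planting and simultaneously onto young plants at one to two leaves, 2 to 10 cm tall. Plants stayed in the greenhouse about ten days; injury was then visually scored against untreated controls, from 0 (no effect) to 100 (complete control).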

[2] = tested on: corn (Zea mays); assay: Test A pre-/postemergence plant response; details: for Corn plant response rating: visual injury, 0 to 100 scale (0 no effect, 100 complete control), approx. ten days
Summary of the method: as §1

[3] = tested on: giant foxtail (Setaria faberii); assay: Test A pre-/postemergence plant response; details: for Foxtail, Giant plant response rating: visual injury, 0 to 100 scale (0 no effect, 100 complete control), approx. ten days
Summary of the method: as §1

[4] = tested on: large crabgrass (Digitaria sanguinalis); assay: Test A pre-/postemergence plant response; details: for Crabgrass, Large plant response rating: visual injury, 0 to 100 scale (0 no effect, 100 complete control), approx. ten days
Summary of the method: as §1

[5] = tested on: morningglory (Ipomoea spp.); assay: Test A pre-/postemergence plant response; details: for Morningglory plant response rating: visual injury, 0 to 100 scale (0 no effect, 100 complete control), approx. ten days
Summary of the method: as §1

[6] = tested on: pigweed (Amaranthus retroflexus); assay: Test A pre-/postemergence plant response; details: for Pigweed plant response rating: visual injury, 0 to 100 scale (0 no effect, 100 complete control), approx. ten days
Summary of the method: as §1

[7] = tested on: velvetleaf (Abutilon theophrasti); assay: Test A pre-/postemergence plant response; details: for Velvetleaf plant response rating: visual injury, 0 to 100 scale (0 no effect, 100 complete control), approx. ten days
Summary of the method: as §1

[8] = tested on: wheat (Triticum aestivum); assay: Test A pre-/postemergence plant response; details: for Wheat plant response rating: visual injury, 0 to 100 scale (0 no effect, 100 complete control), approx. ten days
Summary of the method: as §1

[9] = tested on: barnyardgrass (Echinochloa crus-galli); assay: Test B flooded paddy test; details: for Plant response rating, Barnyardgrass: Flood (flooded paddy test), 125 g ai/ha, scale 0 to 100, 0 is no effect, 100 is complete control, 13 to 15 days; for Barnyardgrass plant response rating: Flood, 31 g ai/ha, scale 0 to 100 (0 no effect, 100 complete control)
Summary of the method: (§2)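 Each compound is added to standing floodwater (3 cm above soil, maintained) in pots of 2-leaf-stage plants; greenhouse exposure lasts 13–15 d before visual comparison with controls on a 0–100 control scale.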

[10] = tested on: ducksalad (Heteranthera limosa); assay: Test B flooded paddy test; details: for Plant response rating, Ducksalad: Flood (flooded paddy test), 125 g ai/ha, scale 0 to 100, 0 is no effect, 100 is complete control, 13 to 15 days; for Ducksalad plant response rating: Flood, 31 g ai/ha, scale 0 to 100 (0 no effect, 100 complete control)
Summary of the method: as §2

[11] = tested on: rice (Oryza sativa); assay: Test B flooded paddy test; details: for Plant response rating, Rice: Flood (flooded paddy test), 125 g ai/ha, scale 0 to 100, 0 is no effect, 100 is complete control, 13 to 15 days; for Rice plant response rating: Flood, 31 g ai/ha, scale 0 to 100 (0 no effect, 100 complete control)
Summary of the method: as §2

[12] = tested on: umbrella sedge (Cyperus difformis); assay: Test B flooded paddy test; details: for Plant response rating, Sedge, Umbrella: Flood (flooded paddy test), 125 g ai/ha, scale 0 to 100, 0 is no effect, 100 is complete control, 13 to 15 days; for Sedge, Umbrella plant response rating: Flood, 31 g ai/ha, scale 0 to 100 (0 no effect, 100 complete control)
Summary of the method: as §2

[13] = Postemergence, 125 g ai/ha, 0 to 100 scale where 0 is no effect and 100 is complete control
[14] = Preemergence, 125 g ai/ha, 0 to 100 scale, 0 = no effect, 100 = complete control
[15] = Preemergence, 500 g ai/ha, 0 to 100 scale, 0 = no effect, 100 = complete control

| Structure (SMILES) | Plant response rating, Barnyardgrass [1, 13] | Barnyardgrass plant response rating ([1]; Postemergence, 500 g ai/ha) | Plant response rating, Barnyardgrass [1, 14] | Plant response rating, Barnyardgrass [1, 15] | Plant response rating, Corn [2, 13] | Corn plant response rating ([2]; Postemergence, 500 g ai/ha) | Plant response rating, Corn [2, 14] | Plant response rating, Corn [2, 15] | Plant response rating, Foxtail, Giant [3, 13] | Foxtail, Giant plant response rating ([3]; Postemergence, 500 g ai/ha) | Plant response rating, Foxtail, Giant [3, 14] | Plant response rating, Foxtail, Giant [3, 15] | Plant response rating, Crabgrass, Large [4, 13] | Crabgrass, Large plant response rating ([4]; Postemergence, 500 g ai/ha) | Plant response rating, Crabgrass, Large [4, 14] | Plant response rating, Crabgrass, Large [4, 15] | Plant response rating, Morningglory [5, 13] | Morningglory plant response rating ([5]; Postemergence, 500 g ai/ha) | Plant response rating, Morningglory [5, 14] | Plant response rating, Pigweed [6, 13] | also measured |
| --- | --- | --- | --- | --- | --- | --- | --- | --- | --- | --- | --- | --- | --- | --- | --- | --- | --- | --- | --- | --- | --- |
| COCCOCCn1c(-c2cc(F)cc(F)c2)ncc(C(=O)C2=C(O)CCCC2=O)c1=O [Compound 171] | 50 | 90 | 20 | 70 | 30 | 40 | 0 | 20 | 60 | 90 | 30 | 80 | 60 | 90 | 70 | 100 | 100 | 100 | 0 | 100 | Plant response rating, Morningglory [5, 15]: 60; Pigweed plant response rating ([6]; Postemergence, 500 g ai/ha): 100; Plant response rating, Pigweed [6, 14]: 50; Plant response rating, Pigweed [6, 15]: 80; Plant response rating, Velvetleaf [7, 13]: 100; Velvetleaf plant response rating ([7]; Postemergence, 500 g ai/ha): 100; Plant response rating, Velvetleaf [7, 14]: 80; Plant response rating, Velvetleaf [7, 15]: 100; Plant response rating, Wheat [8, 13]: 20; Wheat plant response rating ([8]; Postemergence, 500 g ai/ha): 50; Plant response rating, Wheat [8, 14]: 20; Plant response rating, Wheat [8, 15]: 40; Plant response rating, Barnyardgrass [9]: 20; Barnyardgrass plant response rating [9]: 0; Plant response rating, Ducksalad [10]: 70; Ducksalad plant response rating [10]: 40; Plant response rating, Rice [11]: 0; Rice plant response rating [11]: 0; Plant response rating, Sedge, Umbrella [12]: 80; Sedge, Umbrella plant response rating [12]: 70 |
| CCc1ccc(-n2c(-c3cccc(Cl)c3)ncc(C(=O)C3=C(O)CCCC3=O)c2=O)cc1 [Compound 174] | 90 | 100 | 0 | 40 | 10 | 20 | 10 | 20 | 20 | 60 | 0 | 40 | 70 | 90 | 20 | 60 | 30 | 60 | 0 | 100 | Plant response rating, Morningglory [5, 15]: 0; Pigweed plant response rating ([6]; Postemergence, 500 g ai/ha): 100; Plant response rating, Pigweed [6, 14]: 30; Plant response rating, Pigweed [6, 15]: 90; Plant response rating, Velvetleaf [7, 13]: 100; Velvetleaf plant response rating ([7]; Postemergence, 500 g ai/ha): 100; Plant response rating, Velvetleaf [7, 14]: 20; Plant response rating, Velvetleaf [7, 15]: 70; Plant response rating, Wheat [8, 13]: 0; Wheat plant response rating ([8]; Postemergence, 500 g ai/ha): 0; Plant response rating, Wheat [8, 14]: 0; Plant response rating, Wheat [8, 15]: 0; Plant response rating, Barnyardgrass [9]: 0; Barnyardgrass plant response rating [9]: 0; Plant response rating, Ducksalad [10]: 95; Ducksalad plant response rating [10]: 80; Plant response rating, Rice [11]: 0; Rice plant response rating [11]: 0; Plant response rating, Sedge, Umbrella [12]: 95; Sedge, Umbrella plant response rating [12]: 85 |
| CCc1ccc(-n2c(-c3cccc(Br)c3)ncc(C(=O)C3=C(O)CCCC3=O)c2=O)cc1 [Compound 177] | 80 | 100 | 0 | 10 | 0 | 0 | 0 | 20 | 0 | 40 | 0 | 20 | 30 | 70 | 0 | 10 | 0 | 10 | 0 | 100 | Pigweed plant response rating ([6]; Postemergence, 500 g ai/ha): 100; Plant response rating, Pigweed [6, 14]: 0; Plant response rating, Pigweed [6, 15]: 50; Plant response rating, Velvetleaf [7, 13]: 90; Velvetleaf plant response rating ([7]; Postemergence, 500 g ai/ha): 100; Plant response rating, Velvetleaf [7, 14]: 10; Plant response rating, Velvetleaf [7, 15]: 40; Plant response rating, Wheat [8, 13]: 0; Wheat plant response rating ([8]; Postemergence, 500 g ai/ha): 0; Plant response rating, Wheat [8, 14]: 0; Plant response rating, Wheat [8, 15]: 0; Plant response rating, Barnyardgrass [9]: 15; Barnyardgrass plant response rating [9]: 0; Plant response rating, Ducksalad [10]: 70; Ducksalad plant response rating [10]: 30; Plant response rating, Rice [11]: 20; Rice plant response rating [11]: 15; Plant response rating, Sedge, Umbrella [12]: 75; Sedge, Umbrella plant response rating [12]: 60 |
